Each block holds one compound with its values, some of them ahead of it.
What was measured:
Assay type in all cases: cell-based
[1] = target: T1, Strep/HA SLC9A1 (Homo sapiens, UniProt P19634); experiment: Selectivity across SLC9 family: degradation of exogenous Strep/HA SLC9A1; details: HAP1; 250 or 750 nM; 16 hours
T1 construct: expressed in transfected cells; host or cells: HAP1 (lentiviral, pRRL Strep-HA; cDNA synthesized by Genescript)
Method: (§1) (E) Selectivity of d9A1-2 was tested across HAP1 cell lines expressing Strep/HASLC9A1, 9A4, 9A5, 9A8, 9A2, 9B2, 9A6, 9A9, and 9A3. Cells were treated with varying concentrations of d9A1-2 for 16 hours, after which degradation of the exogenous SLCs was monitored.
(§2) SLC1A5, SLC2A1, SLC2A3, SLC16A1, SLC38A1, SLC38A2 were obtained as gateway-compatible pENTR/pDONR vectors from the Harvard PlasmID Repository. SLC39A7 was obtained from Dharmacon, GE Healthcare. The following vectors were synthesized by Genescript: SLC4A4, SLC7A3, SLC38A9, SLC25A1, SLC9A1, SLC9A2, SLC9A3, SLC9A4, SLC9A5, SLC9A6, SLC9A7, SLC9A8, and SLC9B2. SLC30A9, SLC33A1, SLC35B2, SLC25A26, and MTCH2 were a gift from the RESOLUTE consortium. cDNAs were transferred into gateway-compatible lentiviral expression vectors: pLX305 dTAG vectors (Addgene #91797/8) or pRRL Strep-HA (described previously43, EF1a promotor driven expression) using LR recombination (ThermoFisher Scientific). […]
(§3) For immunoblotting, whole cell extracts were prepared using RIPA lysis buffer (25 mM Tris/HCl pH 7.6, 150 mM NaCl, 1% NP-40, 1% sodium deoxycholate, 0.1% SDS, EDTA-free protease inhibitor (Roche) and phosphatase inhibitors 2+3 (Sigma- Aldrich)). […] Protein extracts were quantified and normalized using the BCA assay (Thermo Scientific). […]

[2] = target: T2, Strep/HA SLC9A5 (Homo sapiens, UniProt Q14940); experiment: Selectivity across SLC9 family: degradation of exogenous Strep/HA SLC9A5; details: HAP1; 250 or 750 nM; 16 hours
T2 construct: expressed in transfected cells; host or cells: HAP1 (lentiviral, pRRL Strep-HA; cDNA synthesized by Genescript)
T2 sequence (Q14940 whole entry): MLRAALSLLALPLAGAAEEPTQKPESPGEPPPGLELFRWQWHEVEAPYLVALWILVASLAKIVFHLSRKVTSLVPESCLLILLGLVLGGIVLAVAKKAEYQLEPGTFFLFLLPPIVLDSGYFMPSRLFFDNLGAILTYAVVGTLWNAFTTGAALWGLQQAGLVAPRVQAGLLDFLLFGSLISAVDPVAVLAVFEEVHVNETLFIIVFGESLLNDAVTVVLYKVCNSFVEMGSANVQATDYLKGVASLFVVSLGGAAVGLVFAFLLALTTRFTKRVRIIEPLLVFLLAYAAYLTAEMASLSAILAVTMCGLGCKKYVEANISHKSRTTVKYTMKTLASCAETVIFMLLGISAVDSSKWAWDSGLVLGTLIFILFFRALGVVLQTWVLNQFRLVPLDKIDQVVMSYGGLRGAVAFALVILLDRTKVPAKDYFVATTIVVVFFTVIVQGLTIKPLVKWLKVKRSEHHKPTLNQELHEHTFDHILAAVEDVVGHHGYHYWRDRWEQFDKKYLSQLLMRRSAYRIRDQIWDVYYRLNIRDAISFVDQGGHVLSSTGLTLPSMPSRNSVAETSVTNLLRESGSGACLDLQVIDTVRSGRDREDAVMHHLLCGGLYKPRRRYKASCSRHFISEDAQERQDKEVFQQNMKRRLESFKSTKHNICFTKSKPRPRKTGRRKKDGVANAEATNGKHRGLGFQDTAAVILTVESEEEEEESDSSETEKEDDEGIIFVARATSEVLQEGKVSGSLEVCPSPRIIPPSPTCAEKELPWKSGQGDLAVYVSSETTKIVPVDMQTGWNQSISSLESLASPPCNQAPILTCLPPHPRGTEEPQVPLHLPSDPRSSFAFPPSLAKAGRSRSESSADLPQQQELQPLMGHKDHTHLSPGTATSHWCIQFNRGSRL
Method: as §1, §2, §3

[3] = target: T3, Strep/HA SLC9A9 (Homo sapiens, UniProt Q8IVB4); experiment: Selectivity across SLC9 family: degradation of exogenous Strep/HA SLC9A9; details: HAP1; 250 or 750 nM; 16 hours
T3 construct: expressed in transfected cells; host or cells: HAP1 (lentiviral, pRRL Strep-HA)
T3 sequence (Q8IVB4 whole entry): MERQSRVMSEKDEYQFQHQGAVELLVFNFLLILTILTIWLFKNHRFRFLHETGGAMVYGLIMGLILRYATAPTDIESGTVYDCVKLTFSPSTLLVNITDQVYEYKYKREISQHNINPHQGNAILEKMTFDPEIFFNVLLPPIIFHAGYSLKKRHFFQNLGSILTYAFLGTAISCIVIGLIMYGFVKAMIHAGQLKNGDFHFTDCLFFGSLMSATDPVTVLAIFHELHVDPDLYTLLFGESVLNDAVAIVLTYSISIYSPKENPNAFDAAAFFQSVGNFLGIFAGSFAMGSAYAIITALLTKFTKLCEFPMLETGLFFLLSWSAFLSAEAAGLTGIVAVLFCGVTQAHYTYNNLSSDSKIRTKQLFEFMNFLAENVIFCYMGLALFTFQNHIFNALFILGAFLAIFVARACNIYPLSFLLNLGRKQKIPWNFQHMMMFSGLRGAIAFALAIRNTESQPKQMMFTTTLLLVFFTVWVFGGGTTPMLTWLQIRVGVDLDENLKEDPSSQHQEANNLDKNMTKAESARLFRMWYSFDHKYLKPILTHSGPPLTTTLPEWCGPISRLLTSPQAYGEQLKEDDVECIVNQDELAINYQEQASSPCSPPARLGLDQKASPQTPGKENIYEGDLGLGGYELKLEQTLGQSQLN
Method: as §1, §2, §3

[4] = target: T4, dTAG-HA SLC2A1 (Homo sapiens, UniProt P11166+Q96SW2); experiment: Targeted degradation of dTAG-tagged SLC2A1 (western blot); details: HAP1, 0.5 µM, 24, 48 or 72 hours
T4 construct: expressed in transfected cells
T4 sequence (P11166 with tags, fused parts or gaps): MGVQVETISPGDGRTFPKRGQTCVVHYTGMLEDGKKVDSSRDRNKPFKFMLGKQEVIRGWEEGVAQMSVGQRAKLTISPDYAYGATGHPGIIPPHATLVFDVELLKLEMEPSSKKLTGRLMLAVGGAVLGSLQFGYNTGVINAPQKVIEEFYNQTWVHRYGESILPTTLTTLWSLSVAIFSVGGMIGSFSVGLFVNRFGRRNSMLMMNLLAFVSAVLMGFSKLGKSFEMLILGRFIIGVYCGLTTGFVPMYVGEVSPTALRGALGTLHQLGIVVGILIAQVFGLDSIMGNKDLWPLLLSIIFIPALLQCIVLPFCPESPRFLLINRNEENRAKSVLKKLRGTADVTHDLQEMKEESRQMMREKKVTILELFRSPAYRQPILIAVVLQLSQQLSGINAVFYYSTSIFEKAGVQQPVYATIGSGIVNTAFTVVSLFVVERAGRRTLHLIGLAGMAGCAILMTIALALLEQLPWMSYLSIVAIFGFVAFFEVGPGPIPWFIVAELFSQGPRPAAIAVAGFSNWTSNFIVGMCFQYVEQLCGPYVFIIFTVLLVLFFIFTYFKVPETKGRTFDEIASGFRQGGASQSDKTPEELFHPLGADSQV
T4 sequence (Q96SW2 whole entry): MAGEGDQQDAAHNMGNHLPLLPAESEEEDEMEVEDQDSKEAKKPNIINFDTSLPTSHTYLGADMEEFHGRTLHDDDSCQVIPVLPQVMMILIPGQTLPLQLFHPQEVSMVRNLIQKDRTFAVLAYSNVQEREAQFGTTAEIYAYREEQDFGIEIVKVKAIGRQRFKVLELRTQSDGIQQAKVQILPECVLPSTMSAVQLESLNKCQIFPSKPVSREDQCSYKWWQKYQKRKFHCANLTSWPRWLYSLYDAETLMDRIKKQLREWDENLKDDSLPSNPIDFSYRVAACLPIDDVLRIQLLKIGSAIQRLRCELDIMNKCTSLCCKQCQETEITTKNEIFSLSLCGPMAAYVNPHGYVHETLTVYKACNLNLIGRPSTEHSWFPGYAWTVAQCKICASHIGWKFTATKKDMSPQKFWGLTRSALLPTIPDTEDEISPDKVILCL
T4 sequence (Q16531 whole entry partner): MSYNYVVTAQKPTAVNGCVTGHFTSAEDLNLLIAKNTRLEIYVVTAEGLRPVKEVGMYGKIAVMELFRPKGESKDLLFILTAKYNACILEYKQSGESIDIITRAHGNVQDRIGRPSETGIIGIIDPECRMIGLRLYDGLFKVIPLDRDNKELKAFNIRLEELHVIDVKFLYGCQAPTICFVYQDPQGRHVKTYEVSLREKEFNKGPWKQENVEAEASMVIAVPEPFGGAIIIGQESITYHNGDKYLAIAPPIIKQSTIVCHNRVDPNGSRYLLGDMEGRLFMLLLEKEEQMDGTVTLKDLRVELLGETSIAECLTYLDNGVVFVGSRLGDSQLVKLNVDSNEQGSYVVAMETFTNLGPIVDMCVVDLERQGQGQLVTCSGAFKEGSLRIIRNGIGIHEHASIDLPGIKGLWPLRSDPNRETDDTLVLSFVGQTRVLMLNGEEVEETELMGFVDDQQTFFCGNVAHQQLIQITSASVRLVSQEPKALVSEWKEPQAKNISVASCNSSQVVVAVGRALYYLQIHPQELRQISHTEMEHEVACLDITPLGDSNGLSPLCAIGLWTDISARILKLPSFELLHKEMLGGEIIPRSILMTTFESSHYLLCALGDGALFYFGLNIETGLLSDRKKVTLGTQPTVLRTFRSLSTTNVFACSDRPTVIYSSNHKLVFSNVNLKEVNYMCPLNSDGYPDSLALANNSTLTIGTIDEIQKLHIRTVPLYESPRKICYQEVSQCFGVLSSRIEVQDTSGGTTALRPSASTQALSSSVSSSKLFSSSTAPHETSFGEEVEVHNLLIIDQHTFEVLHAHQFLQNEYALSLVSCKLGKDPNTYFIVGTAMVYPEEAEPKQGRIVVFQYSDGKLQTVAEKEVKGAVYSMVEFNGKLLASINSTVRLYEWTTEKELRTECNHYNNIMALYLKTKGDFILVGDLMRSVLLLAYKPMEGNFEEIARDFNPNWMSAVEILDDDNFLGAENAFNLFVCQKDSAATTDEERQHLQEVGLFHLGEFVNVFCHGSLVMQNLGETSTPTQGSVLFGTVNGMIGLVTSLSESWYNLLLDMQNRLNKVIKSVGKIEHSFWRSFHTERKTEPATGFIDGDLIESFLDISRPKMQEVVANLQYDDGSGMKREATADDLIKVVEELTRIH
Method: (§4) (C)HAP1 cells expressing dTAG-HA SLC1A5, 2A3, 30A9, 35B2, MTCH2, and 33A1 were treated for 24 hours with 0.5 µM of dTAG7 or dTAG13, as indicated. HAP1 cells expressing dTAG-HA SLC2A1 and 16A1 were treated for 24 hrs with 0.5 µM of dTAG7. HAP1 cell lines expressing dTAG-HA SLC39A7, dTAG-HA SLC4A4, and SLC7A3-dTAG-HA were treated for 48 hrs with 0.5 µM of dTAG13.
(§5) SLC1A5, SLC2A1, SLC2A3, SLC16A1, SLC38A1, SLC38A2 were obtained as gateway-compatible pENTR/pDONR vectors from the Harvard PlasmID Repository. SLC39A7 was obtained from Dharmacon, GE Healthcare. The following vectors were synthesized by Genescript: SLC4A4, SLC7A3, SLC38A9, SLC25A1, SLC9A1, SLC9A2, SLC9A3, SLC9A4, SLC9A5, SLC9A6, SLC9A7, SLC9A8, and SLC9B2. […]
as §3
(§6) SLCs were ectopically expressed as fusions to a mutated FKBP domain, also known as the dTAG system. […]

[5] = target: T5, dTAG-HA SLC30A9 (Homo sapiens, UniProt Q6PML9+Q96SW2); experiment: Targeted degradation of dTAG-tagged SLC30A9 (western blot); details: HAP1, 0.5 µM
T5 construct: expressed in transfected cells
Method: as §4, §5, §3, §6

[6] = target: T6, dTAG-HA SLC35B2 (Homo sapiens, UniProt Q8TB61+Q96SW2); experiment: Targeted degradation of dTAG-tagged SLC35B2 (western blot); details: HAP1, 0.5 µM, 24, 48 or 72 hours
T6 construct: expressed in transfected cells
T6 sequence (Q8TB61 with tags, fused parts or gaps): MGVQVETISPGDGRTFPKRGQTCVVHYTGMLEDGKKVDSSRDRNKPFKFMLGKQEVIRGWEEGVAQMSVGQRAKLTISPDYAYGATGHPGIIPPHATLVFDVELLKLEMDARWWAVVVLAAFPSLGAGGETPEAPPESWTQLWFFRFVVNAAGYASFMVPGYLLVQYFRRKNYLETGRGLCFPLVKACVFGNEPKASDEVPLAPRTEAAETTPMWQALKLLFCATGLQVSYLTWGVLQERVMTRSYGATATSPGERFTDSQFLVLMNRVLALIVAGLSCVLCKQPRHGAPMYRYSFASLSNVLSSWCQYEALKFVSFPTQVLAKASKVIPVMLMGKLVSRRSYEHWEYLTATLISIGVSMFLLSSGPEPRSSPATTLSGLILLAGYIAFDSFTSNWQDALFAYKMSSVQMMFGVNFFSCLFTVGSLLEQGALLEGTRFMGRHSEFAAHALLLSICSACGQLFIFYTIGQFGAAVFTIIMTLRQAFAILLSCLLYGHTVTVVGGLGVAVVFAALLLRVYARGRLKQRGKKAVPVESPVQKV
T6 sequence (Q96SW2 whole entry): as the sequence (Q96SW2 whole entry) above
T6 sequence (Q16531 whole entry partner): as the sequence (Q16531 whole entry partner) above
Method: as §4, §5, §3, §6

[7] = target: T7, dTAG-HA SLC38A1 (Homo sapiens, UniProt Q96SW2+Q9H2H9); experiment: Targeted degradation of dTAG-tagged SLC38A1 (western blot)
T7 construct: expressed in transfected cells
T7 sequence (Q16531 whole entry): as the sequence (Q16531 whole entry partner) above
T7 sequence (Q9H2H9 other isoform, or with tags, fused parts or gaps): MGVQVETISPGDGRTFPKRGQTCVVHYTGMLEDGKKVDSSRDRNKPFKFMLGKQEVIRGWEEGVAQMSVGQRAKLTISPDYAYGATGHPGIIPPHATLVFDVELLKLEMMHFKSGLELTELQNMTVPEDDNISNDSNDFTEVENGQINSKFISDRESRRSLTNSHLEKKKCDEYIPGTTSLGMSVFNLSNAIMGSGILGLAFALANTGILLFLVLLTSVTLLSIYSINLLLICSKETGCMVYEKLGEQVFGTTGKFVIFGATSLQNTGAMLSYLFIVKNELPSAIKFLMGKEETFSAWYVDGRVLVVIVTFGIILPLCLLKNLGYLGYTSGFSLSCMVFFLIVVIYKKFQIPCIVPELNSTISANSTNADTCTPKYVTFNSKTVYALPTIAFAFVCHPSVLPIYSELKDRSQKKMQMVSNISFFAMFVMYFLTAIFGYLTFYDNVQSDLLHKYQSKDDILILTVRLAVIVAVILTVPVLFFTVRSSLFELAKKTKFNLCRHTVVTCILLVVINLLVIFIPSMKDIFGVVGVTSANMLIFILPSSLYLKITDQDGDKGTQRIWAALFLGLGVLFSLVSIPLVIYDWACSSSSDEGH
T7 sequence (Q96SW2 whole entry): as the sequence (Q96SW2 whole entry) above
Method: (A) HAP1 cells expressing dTAG-HA SLC38A9, 38A2, or 38A1 were treated with 0.5 µM dTAG13 for 16, 24 or 48 hours.
as §2, §3
SLCs were ectopically expressed as fusions to a mutated FKBP domain, also known as the dTAG system. […] Each of the tested SLCs was stably expressed in HAP1 cells, and subcellular localization was assessed by immunofluorescence microscopy (FIG. 1B). […]

- degradation of exogenous SLC9A1 [1]: most efficient degradation
- abundance of exogenous SLC9A5 [2]: not significantly affected
- abundance of exogenous SLC9A9 [3]: not significantly affected
Structure (SMILES): Cc1cc(-c2ccc(C(=O)NCCOCCOCCOCCOCCNc3cccc4c3C(=O)N(C3CCC(=O)NC3=O)C4=O)cc2N2CCC(c3[nH]cnc3C)CC2)ccc1F (centres unmarked) [d9A1-2]

- reversibility of degradation of the target SLC [4]: reversible degradation
- initiation of degradation (time course) [5]: ≤ 6 h
- reversibility of degradation of the target SLC [6]: reversible degradation
Structure (SMILES): CC[C@H](C(=O)N1CCCC[C@H]1C(=O)O[C@H](CCc1ccc(OC)c(OC)c1)c1ccccc1OCC(=O)NCCCOCCOCCOCCCNC(=O)COc1cccc2c1C(=O)N(C1CCC(=O)NC1=O)C2=O)c1cc(OC)c(OC)c(OC)c1 (some centres unmarked) [dTAG7]

Structure (SMILES): CC[C@H](C(=O)N1CCCC[C@H]1C(=O)O[C@H](CCc1ccc(OC)c(OC)c1)c1ccccc1OCC(=O)NCCCCCCOc1cccc2c1C(=O)N(C1CCC(=O)NC1=O)C2=O)c1cc(OC)c(OC)c(OC)c1 (some centres unmarked) [dTAG13]
- degradation of the target SLC ([7]; HAP1, dTAG-HA SLC38A1, 0.5 µM, 16, 24 or 48 hours): Near-complete degradation
- degradation of dTAG-HA SLC38A1 (antibodies against HA-tag and total protein) ([7]; HAP1 or 293T, PNGase de-glycosylated extracts): completely degraded

Reference: patent US20230241226A1, “COMPOUNDS FOR TARGETED DEGRADATION OF CARRIER PROTEINS AND USES THEREOF” (CeMM - Forschungszentrum für Molekulare Medizin GmbH, priority 2019, published 2023)
